Values of other authors, collected in US5945417A, “Heterocyclic compounds, their preparation and use” (priority 1995, dated 1999).

Legend:
[1] = system: metabotropic glutamate receptors; conditions: literature
[2] = system: trans ACPD stimulated phosphoinositide hydrolysis; conditions: literature
[3] = system: mGluR1α; conditions: 1 mM quisqualate or glutamate; BHK cells expressing mGluR1α
[4] = system: nerve cell cultures; conditions: literature
[5] = system: MCAO model in mice; conditions: literature
[6] = system: release of dopamine in the rat brain; conditions: literature
[7] = system: control BHK cells; conditions: 1 mM quisqualate or glutamate

Cc1onc(O)c1CC(N)C(=O)O (stereo not shown) [AMPA]
action on the metabotropic glutamate receptors [1]: little effect

N[C@H](C(=O)O)c1ccc(C(=O)O)c(O)c1 [Compound S-4C3HPG, S-4-carboxy-3-hydroxyphenyl glycine]
antagonism of trans ACPD stimulated phosphoinositide hydrolysis [2]: antagonise trans ACPD stimulated phosphoinositide hydrolysis

N[C@H](C(=O)O)c1ccc(C(=O)O)cc1 [Compound S-4CPG, S-4-carboxyphenyl glycine]
antagonism of trans ACPD stimulated phosphoinositide hydrolysis [2]: antagonise trans ACPD stimulated phosphoinositide hydrolysis

N[C@@H](CP(=O)(O)O)C(=O)O [L-AP3, L-2-amino-3-phosphonopropionic acid]
action on the metabotropic glutamate receptors [1]: partial agonist

N[C@@H](CCC(=O)O)C(=O)O [L-glutamate]
fold increase over basal Pl-hydrolysis [3]: 6-8 fold

CN[C@H](CC(=O)O)C(=O)O [NMDA]
action on the metabotropic glutamate receptors [1]: little effect

C[C@@](N)(C(=O)O)c1ccc(C(=O)O)cc1 [S-MCPG, S-alpha methyl4-carboxyphenyl glycine]
antagonism of trans ACPD stimulated phosphoinositide hydrolysis [2]: antagonise trans ACPD stimulated phosphoinositide hydrolysis

N[C@@]1(C(=O)O)CC[C@@H](C(=O)O)C1 [Trans-ACPD, trans 1S,3R-1-aminocyclopentane-1,3-dicarboxylicacid]
inhibition of NMDA induced neurotoxicity [4]: inhibit NMDA induced neurotoxicity | neuroprotection in an MCAO model in mice [5]: neuroprotective agent | release of dopamine in the rat brain [6]: increase release of dopamine in the rat brain | action on the metabotropic glutamate receptors [1]: selectively activated

NC(C(=O)O)c1cc(O)no1 (stereo not shown) [ibotenate]
action on the metabotropic glutamate receptors [1]: non-selective agonists

C=C(C)[C@H]1CN[C@H](C(=O)O)[C@H]1CC(=O)O [kainate]
action on the metabotropic glutamate receptors [1]: little effect

N[C@@H](Cn1oc(=O)[nH]c1=O)C(=O)O [quisqualate]
fold increase over basal Pl-hydrolysis [3]: 6-8 fold | stimulation in control BHK cells [7]: no stimulation | action on the metabotropic glutamate receptors [1]: non-selective agonists
